Measurements reported in article PMC10746543, “Design principles for cyclin K molecular glue degraders” (Nature Chemical Biology, 2023).
pEC50: −log10 of the molar value. Several values for one entry are separate records, joined by “and”; a condition that tells them apart may be missing. Identical values can stand only once.

Key:
[1] = system: cyclin K–eGFP degradation reporter; assay: Cyclin K reporter stability analysis (dual-color cyclin K–eGFP reporter); assay type: cell-based, human; conditions: source data sheet correlations; read-out: DC50
Summary of the method: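 Readout was the eGFP-to-mCherry geometric-mean ratio by flow cytometry, normalized to three DMSO controls, after 5 h drug exposure. Cells used were HEK293T–Cas9 expressing the dual-colour cyclin K–eGFP degradation reporter.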

HEK293T cells = assay: Drug sensitivity assay (CellTiter-Glo viability) with or without MLN4924 pretreatment; assay type: cell-based, human; conditions: Supplementary Table 2
Summary of the method: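 First, cells (HEK293T–Cas9, 0.15 × 10^6 ml^−1) are exposed to DMSO or 100 nM MLN4924. Next, drugs follow at 2 h. Finally, CellTiter-Glo is read at day 3 and normalised to DMSO.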

CDK12–cyclin K = CDK12–cyclin K (Homo sapiens, UniProt Q9NYV4); assay: Lanthascreen kinase binding assay, CDK12; conditions: for Lanthascreen raw signal, sheet CDK12: series r37, duplicates
Description: (§1) Lanthascreen experiments were performed using commercially available reagents (Thermo Fisher) and according to the manufacturer’s instructions.

CDK9–cyclin T = molecular target: T1, CDK9–cyclin T (Homo sapiens, UniProt P50750); assay: Lanthascreen kinase binding assay, CDK9; conditions: for Lanthascreen TR-FRET signal (raw ratio), sheet CDK9: third titration set (r25), duplicates
T1 construct: purchased Thermo Fisher
Description: as §1

CDK2–cyclin A = molecular target: T2, CDK2–cyclin A (Homo sapiens, UniProt P24941); assay: Lanthascreen kinase binding assay, CDK2; conditions: for Lanthascreen signal, sheet CDK2: raw replicates, experiment r36-r46
T2 construct: purchased Thermo Fisher
Description: as §1

CDK12–cyclin K, sequence (Q9NYV4 713-1052): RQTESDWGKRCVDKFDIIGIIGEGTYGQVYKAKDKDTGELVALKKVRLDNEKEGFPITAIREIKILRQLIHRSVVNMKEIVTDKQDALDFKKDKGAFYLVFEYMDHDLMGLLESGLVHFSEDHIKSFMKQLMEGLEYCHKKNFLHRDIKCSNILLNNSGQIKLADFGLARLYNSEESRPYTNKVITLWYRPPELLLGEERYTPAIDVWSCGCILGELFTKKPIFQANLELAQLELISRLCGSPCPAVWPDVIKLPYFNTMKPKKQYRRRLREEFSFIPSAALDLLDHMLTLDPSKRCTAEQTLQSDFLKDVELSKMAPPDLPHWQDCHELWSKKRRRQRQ
CDK12–cyclin K, sequence (O75909 1-267 partner limits assumed): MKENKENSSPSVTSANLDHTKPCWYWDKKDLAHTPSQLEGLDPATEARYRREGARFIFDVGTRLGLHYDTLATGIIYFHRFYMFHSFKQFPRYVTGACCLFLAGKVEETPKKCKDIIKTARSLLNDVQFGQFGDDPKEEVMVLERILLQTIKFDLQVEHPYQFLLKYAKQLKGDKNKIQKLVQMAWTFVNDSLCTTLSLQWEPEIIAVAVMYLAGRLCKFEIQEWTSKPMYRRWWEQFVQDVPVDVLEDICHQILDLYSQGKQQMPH
T1 sequence (P50750 whole entry): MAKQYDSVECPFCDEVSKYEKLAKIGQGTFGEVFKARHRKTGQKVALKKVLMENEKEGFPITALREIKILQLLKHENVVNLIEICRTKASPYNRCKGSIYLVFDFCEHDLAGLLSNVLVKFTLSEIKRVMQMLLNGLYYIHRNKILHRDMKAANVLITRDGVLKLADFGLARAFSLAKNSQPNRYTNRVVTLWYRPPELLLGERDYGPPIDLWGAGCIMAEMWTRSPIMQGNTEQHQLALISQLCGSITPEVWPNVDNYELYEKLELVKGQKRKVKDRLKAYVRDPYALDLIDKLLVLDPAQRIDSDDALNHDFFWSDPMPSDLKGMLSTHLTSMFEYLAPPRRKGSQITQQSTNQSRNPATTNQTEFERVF
T1 sequence (O60563 whole entry partner): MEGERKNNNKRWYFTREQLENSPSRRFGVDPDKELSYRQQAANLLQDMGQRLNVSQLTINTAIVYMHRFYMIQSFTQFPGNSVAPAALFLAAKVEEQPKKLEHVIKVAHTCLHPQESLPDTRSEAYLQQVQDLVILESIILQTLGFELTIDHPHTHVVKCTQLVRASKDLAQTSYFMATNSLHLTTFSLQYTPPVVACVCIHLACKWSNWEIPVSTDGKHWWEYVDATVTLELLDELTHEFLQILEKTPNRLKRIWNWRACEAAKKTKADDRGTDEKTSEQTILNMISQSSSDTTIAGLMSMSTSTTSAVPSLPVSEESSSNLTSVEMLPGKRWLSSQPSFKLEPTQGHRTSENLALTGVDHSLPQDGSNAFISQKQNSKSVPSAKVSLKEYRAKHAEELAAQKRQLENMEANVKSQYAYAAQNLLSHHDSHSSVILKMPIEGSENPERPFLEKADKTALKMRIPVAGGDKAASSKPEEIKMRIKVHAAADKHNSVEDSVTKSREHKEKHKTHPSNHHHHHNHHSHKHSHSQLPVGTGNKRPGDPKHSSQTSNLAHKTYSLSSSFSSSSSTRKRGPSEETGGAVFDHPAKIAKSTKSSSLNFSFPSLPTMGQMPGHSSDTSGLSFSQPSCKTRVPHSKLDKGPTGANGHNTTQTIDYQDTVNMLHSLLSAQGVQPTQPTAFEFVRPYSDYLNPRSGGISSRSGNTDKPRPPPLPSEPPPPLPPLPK

## CC[C@H](CO)Nc1nc(NCc2nc3cc(Cl)c(Cl)cc3[nH]2)c2ncn(C(C)C)c2n1 [DS17]
[1]
  DC50: 12 nM
HEK293T cells; Homo sapiens, HEK-293T, HEK293T viability, 72 h, compound alone, read-out: Cellular assays EC50
  pEC50: 7.03
HEK293T cells; MLN4924-mediated cytotoxicity rescue, 10 µM used where n.d.
  Toxicity rescue: 53%
CDK12–cyclin K; Lanthascreen across CDK2/9/12
  CDK inhibitory selectivity, result in words: CDK12 selective
CDK12–cyclin K; Supplementary Table 2, read-out: Lanthascreen IC50 [nM] CDK12
  IC50: 117 nM
CDK12–cyclin K; compound 0.038147 nM
  Lanthascreen raw signal, sheet CDK12: 0.01439 and 0.01466
CDK12–cyclin K; compound 0.152588 nM
  Lanthascreen raw signal, sheet CDK12: 0.01355 and 0.01465
CDK12–cyclin K; compound 0.610352 nM
  Lanthascreen raw signal, sheet CDK12: 0.01399 and 0.01278
CDK12–cyclin K; compound 9.76563 nM
  Lanthascreen raw signal, sheet CDK12: 0.01302 and 0.01264
CDK12–cyclin K; compound 39.0625 nM
  Lanthascreen raw signal, sheet CDK12: 0.01048 and 0.01099
CDK12–cyclin K; compound 156.25 nM
  Lanthascreen raw signal, sheet CDK12: 0.008496 and 0.009307
CDK12–cyclin K; compound 625 nM
  Lanthascreen raw signal, sheet CDK12: 0.00749 and 0.007398
CDK12–cyclin K; compound 2500 nM
  Lanthascreen raw signal, sheet CDK12: 0.006169 and 0.00594
CDK12–cyclin K; compound 10000 nM
  Lanthascreen raw signal, sheet CDK12: 0.005029 and 0.005256
CDK9–cyclin T; Supplementary Table 2, read-out: Lanthascreen IC50 [nM] CDK9
  IC50: 3060 nM
CDK9–cyclin T; compound 0.038147 nM
  Lanthascreen TR-FRET signal (raw ratio), sheet CDK9: 0.02187 and 0.01792
CDK9–cyclin T; compound 0.152588 nM
  Lanthascreen TR-FRET signal (raw ratio), sheet CDK9: 0.02168 and 0.01994
CDK9–cyclin T; compound 0.610352 nM
  Lanthascreen TR-FRET signal (raw ratio), sheet CDK9: 0.0196 and 0.01929
CDK9–cyclin T; compound 9.76563 nM
  Lanthascreen TR-FRET signal (raw ratio), sheet CDK9: 0.02026 and 0.01917
CDK9–cyclin T; compound 39.0625 nM
  Lanthascreen TR-FRET signal (raw ratio), sheet CDK9: 0.02086 and 0.01978
CDK9–cyclin T; compound 156.25 nM
  Lanthascreen TR-FRET signal (raw ratio), sheet CDK9: 0.01948 and 0.0176
CDK9–cyclin T; compound 625 nM
  Lanthascreen TR-FRET signal (raw ratio), sheet CDK9: 0.01695 and 0.01459
CDK9–cyclin T; compound 2500 nM
  Lanthascreen TR-FRET signal (raw ratio), sheet CDK9: 0.01153 and 0.01174
CDK9–cyclin T; compound 10000 nM
  Lanthascreen TR-FRET signal (raw ratio), sheet CDK9: 0.006855 and 0.006128
CDK2–cyclin A; Compound 0.038147 nM
  Lanthascreen signal, sheet CDK2: 0.01335 and 0.01346
CDK2–cyclin A; Compound 0.152588 nM
  Lanthascreen signal, sheet CDK2: 0.01372 and 0.01373
CDK2–cyclin A; Compound 0.610352 nM
  Lanthascreen signal, sheet CDK2: 0.01335 and 0.01333
CDK2–cyclin A; Compound 9.76563 nM
  Lanthascreen signal, sheet CDK2: 0.01387 and 0.01379
CDK2–cyclin A; Compound 39.0625 nM
  Lanthascreen signal, sheet CDK2: 0.01306 and 0.01354
CDK2–cyclin A; Compound 156.25 nM
  Lanthascreen signal, sheet CDK2: 0.01303 and 0.01259
CDK2–cyclin A; Compound 625 nM
  Lanthascreen signal, sheet CDK2: 0.01178 and 0.01167
CDK2–cyclin A; Compound 2500 nM
  Lanthascreen signal, sheet CDK2: 0.01002 and 0.01073
CDK2–cyclin A; Compound 10000 nM
  Lanthascreen signal, sheet CDK2: 0.0065 and 0.006945
CDK2–cyclin A; Supplementary Table 2, read-out: Lanthascreen IC50 [nM] CDK2
  IC50: 10300 nM
